Reference: patent US12508270B2, “Treatment of behavioral impairment in developmental and epileptic encephalopathy” (Harmony Biosciences Management, Inc., priority 2019, dated 2025)

System: child and adolescent epilepsy patients with developmental and epileptic encephalopathies (DEE)
Test: Qualitative caregiver feedback at Week 26
Assay type: in vivo, human
Conditions: transdermal CBD
Source text: Qualitative assessment of improvement, worsening, or no change for the patient and family, such as but not limited to, daily activities, school attendance and alertness. In the examples, clinicians were asked to capture qualitative caregiver feedback at Week 26 with the following questions asked: (1) “Has anything improved for [patient name] and your family since [patient name] has been using the gel?”; (2) “Has anything got worse since for [patient name] and your family since [patient name] has been using the gel?”; and (3) “Let me just ask about a few specific things: Daily activities e.g. school attendance? If so how? Alertness? If so how?”.
Parents/caregivers were instructed to capture seizure frequency and type, and skin irritation scores, within daily diaries. Parents/caregivers also completed: • (1) The University of Washington Caregiver Stress Scale at Day 1, Week 14, and Week 26. • (2) Epilepsy and Learning Disabilities Quality of Life scale (ELDQOL—modified) at Day 1, Week 14 and Week 26. • (3) Sleep Disturbance Scale for Children (SDSC) at Day 1, Week 14 and Week 26. • (4) Vineland Adaptive Behavior Scale-3 (VABS-3) at Day 1 and Week 26. • (5) Parents/caregivers also completed a daily Likert-type “good day/bad day” questionnaire. • (6) Qualitative Caregiver Feedback at Week 26. Objectives […]

## C=C(C)C1CCC(C)=CC1c1c(O)cc(CCCCC)cc1O (stereo not shown) [CBD, 2-[3-methyl-6-(1-methylethenyl)-2-cyclohexen-1-yl]-5-pentyl-1,3-benzenediol]
  qualitative assessments by caregivers: improved many behavioral problems
